Reference: patent US8119624B2, “Fused phenyl amido heterocyclic compounds” (Pfizer Inc., priority 2006, dated 2012)
pEC50: −log10 of the molar value. Where two headings read alike, the source gives them in different places.

Molecular target: T1, Full-length glucokinase (beta cell isoform) (Homo sapiens, UniProt P35557)
T1 construct: Full-length glucokinase (beta cell isoform) was His-tagged at N-terminus; His tag (N); made in house
T1 sequence (P35557 1-465): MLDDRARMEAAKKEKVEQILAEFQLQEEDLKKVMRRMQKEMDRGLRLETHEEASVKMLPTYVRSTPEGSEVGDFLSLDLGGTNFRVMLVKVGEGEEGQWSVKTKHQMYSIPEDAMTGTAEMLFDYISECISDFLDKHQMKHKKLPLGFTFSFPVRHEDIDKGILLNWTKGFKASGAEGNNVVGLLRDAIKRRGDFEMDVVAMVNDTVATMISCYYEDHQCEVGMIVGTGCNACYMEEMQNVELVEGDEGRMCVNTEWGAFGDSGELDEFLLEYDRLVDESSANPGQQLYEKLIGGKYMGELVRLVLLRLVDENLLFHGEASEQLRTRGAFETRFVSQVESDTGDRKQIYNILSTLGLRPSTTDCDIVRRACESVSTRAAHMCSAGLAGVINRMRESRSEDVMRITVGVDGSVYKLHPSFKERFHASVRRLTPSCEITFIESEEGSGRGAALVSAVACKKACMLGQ
Test: Glucokinase biochemical assay (PK/LDH-coupled, NADH depletion at 340 nm): % activation, EC50, % max activation
Conditions: 5 mM glucose; for pEC50: read-out: EC50; for activation at 10 µM: read-out: % Activation at 10 uM; for Emax / % Max Activation: fitted maximum activation; for Emax: read-out: % Max Activation
In short: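 N-terminally His-tagged full-length human beta-cell glucokinase, room temperature, 5 mM glucose, 1 mM ATP, PK/LDH-coupled with 0.7 mM NADH, 1% DMSO final. Initial velocity from the 200–900 s slope of A340 decline. % activation = (Va/Vo−1)×100, measured across compound concentrations.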

[1] = compound at 10 uM, 1 mM ATP, room temperature
[2] = 10 uM compound, % Activation=(Va/Vo−1)×100

Row | activation at 10 µM [2] | pEC50 (GK activation) | Emax | Structure (SMILES) | also measured
1 | – | – | – | CN(CC#N)C(=O)c1ccc(Oc2cc(C(=O)Nc3ccn(C)n3)cc3c2CC(C)(C)O3)cn1 [Example 399, 5-[2,2-Dimethyl-6-(1-methyl-1H-pyrazol-3-ylcarbamoyl)-2,3-dihydro-benzofuran-4-yloxy]-pyridine-2-carboxylic acid cyanomethyl-methyl-amide] | pEC50 (1 mM ATP, room temperature): 6.21; activation at 10 µM [1]: 212%; Emax (1 mM ATP): 231%
2 | 40.3% | < 5.00 | – | Cn1ccc(NC(=O)c2cc(Oc3ccc(S(C)(=O)=O)cc3)cc3c2CC(C)(C)O3)n1 [Example 199, 6-(4-Methanesulfonyl-phenoxy)-2,2-dimethyl-2,3-dihydro-benzofuran-4-carboxylic acid (1-methyl-1H-pyrazol-3-yl)-amide] | –
3 | 3.4% | – | – | Cc1ccc(NC(=O)c2cc(Oc3ccc(C(=O)N(C)C)cc3)c3c(C)csc3c2)nc1 [Example 353, 4-{4-[(Dimethylamino)carbonyl]phenoxy}-3-methyl-N-(5-methylpyridin-2-yl)-1-benzothiophene-6-carboxamide] | –
4 | – | – | – | Cc1ccc(NC(=O)c2cc(Oc3ccc(S(C)(=O)=O)cc3)c3c(c2)C(=O)N(C)CC3)nc1 [Example 390, 2-Methyl-N-(5-methylpyridin-2-yl)-5-(4-(methylsulfonyl)-phenoxy)-1-oxo-1,2,3,4-tetrahydroisoquinoline-7-carboxamide] | activation at 10 µM [1]: 28.9%
5 | 105% | 6.92 | 104% | CN(C)C(=O)c1ccc(Oc2cc(C(=O)Nc3ccn(C)n3)cc3c2CC(C)(C)O3)cc1 [Example 149, 4-(4-Dimethylcarbamoyl-phenoxy)-2,2-dimethyl-2,3-dihydro-benzofuran-6-carboxylic acid (1-methyl-1H-pyrazol-3-yl)-amide] | –
6 | 118% | 6.36 | 137% | Cn1ccc(NC(=O)c2cc(Oc3ccc(C(=O)Nc4ccn(C)n4)nc3)c3c(c2)OC(C)(C)C3)n1 [Example 163, 5-[2,2-Dimethyl-6-(1-methyl-1H-pyrazol-3-ylcarbamoyl)-2,3-dihydro-benzofuran-4-yloxy]-pyridine-2-carboxylic acid (1-methyl-1H-pyrazol-3-yl)-amide] | –
7 | – | 6.38 | – | COCC1(C)Cc2c(Oc3ccc(S(=O)(=O)C4CC4)cc3)cc(C(=O)Nc3cnn(C)n3)cc2O1 (single isomer, unassigned; (+)) [Example 250, (+)-4-(4-Cyclopropanesulfonyl-phenoxy)-2-methoxymethyl-2-methyl-2,3-dihydro-benzofuran-6-carboxylic acid (2-methyl-2H-[1,2,3]triazol-4-yl)-amide] | % Activation at 10 uM [2]: 227%; % Max Activation: 246%
8 | 132% | 6.82 | 118% | CCNC(=O)c1ccc(Oc2cc(C(=O)Nc3ccn(C)n3)cc3c2CC(C)(C)O3)cc1F [Example 70, 4-(4-Ethylcarbamoyl-3-fluoro-phenoxy)-2,2-dimethyl-2,3-dihydro-benzofuran-6-carboxylic acid(1-methyl-1H-pyrazol-3-yl)-amide] | –
9 | – | 6.57 | – | COCC1Cc2c(Oc3ccc(C(=O)N(C)C)c(F)c3)cc(C(=O)Nc3ccn(C)n3)cc2O1 (single isomer, unassigned; (-)) [Example 206, (−)-4-(4-Dimethylcarbamoyl-3-fluoro-phenoxy)-2-methoxymethyl-2,3-dihydro-benzofuran-6-carboxylic acid (1-methyl-1H-pyrazol-3-yl)-amide] | % Activation at 10 uM [2]: 91.3%; % Max Activation: 102%
10 | 238% | 6.08 | 258% | CCNC(=O)c1ccc(Oc2cc(C(=O)Nc3cnn(C)n3)cc3c2CC(C)(C)O3)cn1 [Example 174, 5-[2,2-Dimethyl-6-(2-methyl-2H-[1,2,3]triazol-4-ylcarbamoyl)-2,3-dihydro-benzofuran-4-yloxy]-pyridine-2-carboxylic acid ethylamide] | –
